{"source": "patent US7846747B2", "about": "“Biocatalytic solgel microarrays” (Rensselaer Polytechnic Institute, priority 2001, dated 2010)", "tested_on": "MCF7 breast cancer cells"}
{"compound": "O=P1(N(CCCl)CCCl)NCCCO1", "note": "(stereo not shown) [cyclophosphamide]", "values": [{"measurement": "number of dead cells and ratio of dead to live cells", "value": "significant increase in the number of dead cells"}]}
